Measured values: patent US11197840B2, “Methods of treating or alleviating mental disorders and associated symptoms” (The Florey Institute of Neuroscience and Mental Health, priority 2015, dated 2021)

Tests used:
dynamin 3 = test: Next Generation Sequencing (RNAseq) of primary cortical neurons: dynamin 3 transcript; type: cell-based, mouse; conditions: 1 mM 10-HDA vs DMSO, primary cortical neurons of C57Black 6 mice, harvested Day 7
Description: (§1) Foetal cortices of C57Black 6 mice (gestational days 15) were micro-dissected and subjected to trypsin digestion and mechanical trituration and centrifugation. The pelleted cells were resuspended in Neurobasal™ medium (NBM) containing 2.5% B-27 supplement, 1% penicillin, 1% streptomycin, 0.25% GlutaMAX-1 supplement and 10% dialysed foetal calf serum. Cells were seeded on poly-d-lysine (100 μg/ml) coated 12-well plates to a density of […]. Cultures were maintained at 37° C. in a humidified 5% CO2 and 95% air incubator and were subsequently cultured after day 1 in serum-free medium. After 24 hours, primary cortical neurons were treated with DMSO or 1 mM 10-HDA, and harvested for total RNA preparation on Day 7 for subsequent Next Generation Sequencing (RNAseq). […]
(§2) Total RNA was extracted from each sample using the PARIS kit (Ambion). The quality of RNA was assessed by LabChip® (Perkin Elmer). […] The libraries were sequenced with 50 bp single end reads using Illumina Hiseq and subjected to bioinformatic analyses. Sequencing data were assessed (FastQC) and aligned to mouse genome using Subjunc aligner within the Subread package. Sequencing data was summarised into Reads per transcript using Feature counts and the Gencode gene models for the mouse genome build. […]

[1] = test system: male ArKO (aromatase knockout) mice; test: Water mist spray triggered grooming in male ArKO mice treated with 10-HDA; type: in vivo, mouse
Description: Specifically, male 3 month-old ArKO mice (n=5) were injected daily with 10-HDA (500 μg/kg) for 1 week. Similarly to Example 1 (see above), water mist spray triggered grooming was assessed before and after administration of 10-HDA treatment. During grooming assessment, each mouse was subjected to two squirts of sterile water mist spray and its grooming activity was recorded for 10 min immediately after the mist spray. Grooming duration was analyzed statistically by paired t test. […] Further grooming assessment was performed 5 days after the last administration of 10-HDA.

male ArKO mice = test: Behavioural disturbances of male ArKO mice (wheel running, compulsive grooming); type: in vivo, mouse; conditions: administration to male ArKO mice; general statement
Description: Specifically, the grooming activity of each animal was analysed for 20 min after administration of water mist spray (a trigger for grooming). […] Compulsive grooming observed in ArKO represents an OCD-like repetitive behavioural disturbance in OCD-patients.

[2] = test system: 5-hydroxytryptamine (serotonin) receptor 2C; test: Next Generation Sequencing (RNAseq) of primary cortical neurons: 5-hydroxytryptamine receptor 2C transcript; type: cell-based, mouse; conditions: 1 mM 10-HDA vs DMSO, primary cortical neurons of C57Black 6 mice, harvested Day 7
Description: as §1, §2

`O=C(O)C=CCCCCCCCO` [10-HDA, 10-hydroxy-2-decenoic acid] was tested, and the “transcript expression level of dynamin 3” value (dynamin 3) was “significantly upregulated”, the “grooming duration after the withdrawal period” value ([1]; 5 days after the last administration of 10-HDA, male ArKO mice) was “return to pre-treatment levels” and the “duration of grooming after administration of 10-HDA” value ([1]; male 3 month-old ArKO mice, 500 μg/kg injected daily for 1 week, 10 min after water mist spray, before vs after treatment, paired t test p=0.0363) was “significant reduction”. For the same compound, the “behavioural disturbances, including wheel running and/or compulsive grooming” value (male ArKO mice) was “alleviated one or more of the behavioural disturbances” and the “transcript expression level of 5-hydroxytryptamine (serotonin) receptor 2C” value [2] was “significantly upregulated”.
